Source: patent US8017350B2, “Glimepiride- and insulin-induced glycosylphosphatidylinositol-specific phospholipase C regulation” (Sanofi-Aventis Deutschland GmbH, priority 2004, dated 2011)

Columns and labels:
[1] = system: Hormone-sensitive lipase (HSL); assay: hormone-sensitive lipase assay (radiolabeled triolein emulsion); format: biochemical; conditions: 50 μM
Experimental: Hormone-sensitive lipase (HSL) and lipoprotein lipase (LPL) were measured using a radiolabeled triolein droplet emulsion as described in “Vertesy et al., (2002) Journal Antibiotics 55:480-494”. Pancreatic lipase (PL) was determined by incubation of 0.25 mmol tributyrin in 2 ml of 5 mM Tris/HCl (pH 6.5), 6 mM sodium taurodeoxycholate, 150 mM NaCl, 1 mM CaCl2 with porcine PL and colipase in the same buffer using a recording pH stat (stirring at 1000 rpm at 25° C.) with the pH adjusted to 6.5. PC-PLC was assayed by incubation of 0.2 ml of 10 mM dipalmitoyllecithin, 0.1 ml of 10 mM SDC and 0.1 ml of 0.03 M CaCl2 with bacterial PC-PLC (in 50 mM Tris/HCl, pH 7.5, 0.1% BSA) for 10 min at 37° C. The reaction was terminated by addition of 0.1 ml of 50% TCA and subsequently of 2.5 ml of […]. After centrifugation (1500×g, 15 min), 0.2-ml portions of the upper methanol/water phase (˜1.33 ml) were removed, supplemented with 0.5 ml of 60% HClO4, then heated at 170° C. for 1 h and finally analyzed for inorganic phosphate. Mammalian PI-PLC was measured by incubation of 0.1 ml of 10 mM PI, 0.1 ml of 0.8% sodium deoxycholate, 0.1% BSA, 0.2 ml of 100 mM sodium borate (pH 7.5) and rat liver PI-PLC for 20 min at 37° C. The reaction was terminated and further processed as described for the PC-PLC. […] Radioactive phosphatidic acid was detected by phosphorimaging. […]

[2] = system: GPI-PLC, hcDIGs of rat adipocytes; format: biochemical; conditions: isolated hcDIGs; concentration-dependent
[3] = system: GPI-anchored and acylated signaling proteins (pp59Lyn, Gce1, 5'-Nuc, aP) in DIGs of rat adipocytes; assay: Redistribution of pp59Lyn, Gce1, 5'-Nuc and aP from hcDIGs to lcDIGs in rat adipocytes; format: cell-based; conditions: GPI-2350 50 μM; Tab. 2
[4] = system: pp59Lyn and IRS-1 in rat adipocytes; assay: Tyrosine phosphorylation of pp59Lyn and IRS-1; format: cell-based; conditions: GPI-2350; IRS-1 tyrosine phosphorylation and glucose transport
Experimental: Polypeptides separated by SDS-PAGE were transferred to polyvinylidene difluoride membranes using the semidry procedure as described in “Müller, G. et al., (2001) Mol. Cell. Biol. 21: 4553-4567”. Washed membranes were incubated with anti-caveolin-1 (1:2000), anti-pp59^Lyn (1:1250), anti-aP (1:500), anti-5′-Nuc (1:750) and anti-IRS-1 (1:2000) antibodies for 4 h at 15° C. Washed membranes were incubated with horseradish peroxidase-coupled secondary goat anti-mouse (1:2000) or goat anti-rabbit IgG (1:4000) antibodies. Labeled proteins were visualized by enhanced chemiluminescence.
FIG. 7: Effect of GPI-2350 on the glimepiride/insulin-induced activation of signaling proteins. Isolated rat adipocytes were treated (5 min, 37° C.) without or with GPI-2350 (Panels A, 50 μM; Panels B, increasing conc.) and then incubated (120 min, 37° C.) in the absence or presence of insulin (10 nM) or glimepiride (20 μM). IRS-1 and pp59^Lyn were immunoprecipitated from the defatted postnuclear infranatant (see Materials and Methods) and solubilized combined hc/lcDIGs, respectively, and then immunoblotted for phosphotyrosine. […]

CCCCCCCCCCCCP1(=O)O[C@@H]2[C@H](O)[C@@H](O)[C@H](O)[C@@H](O)[C@@H]2O1 (stereo partly shown) [GPI-2350, myo-inositol-1,2-cyclo-dodecylphosphonic acid]
effect on HSL [1]: not significantly affected
reduction of basal and glimepiride-/insulin-stimulated GPI-PLC activity [2]: to lower than basal and similar levels
effect on glimepiride-induced redistribution of 5'-Nuc, Gce1 and aP [3]: completely eliminated
effect on stimulation by other insulin-mimetic stimuli [4]: neither IRS-1 tyrosine phosphorylation nor glucose transport (Tab. 3) by these stimuli was affected significantly
